Assay results published in PubChem BioAssay AID330 (DTP/NCI, 2004).
Values joined by “and” are separate entries in the source; they are usually repeats but may differ in a detail not shown here. Equal values may be shown once. Toxic doses and inconclusive results are not listed.

Tested on: P388 leukemia ip, CD2F1 mice, survival T/C
Experiment: NCI In Vivo Anticancer Drug Screen. Data for tumor model P388 Leukemia (intraperitoneal) in CD2F1 (CDF1) mice
Conditions: endpoint: median survival time, higher = longer survival
How it was run: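 Mice carrying the transplanted tumor received test compound or vehicle. Survival was recorded in each group, and the value is the treated-group measurement divided by that of the vehicle-treated control group.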

[1] = dose: 50.0 mg/kg/injection, schedule: Q01DX005 (ip), vehicle: saline
[2] = dose: 100.0 mg/kg/injection, schedule: Q01DX005 (ip), vehicle: saline
[3] = dose: 6.25 mg/kg/injection, schedule: Q01DX009 (ip), vehicle: saline
[4] = dose: 12.5 mg/kg/injection, schedule: Q01DX009 (ip), vehicle: saline
[5] = dose: 25.0 mg/kg/injection, schedule: Q01DX009 (ip), vehicle: saline
[6] = dose: 50.0 mg/kg/injection, schedule: Q01DX009 (ip), vehicle: saline
[7] = dose: 50.0 mg/kg/injection, schedule: Q01DX005 (ip), vehicle: saline with Tween-80
[8] = dose: 100.0 mg/kg/injection, schedule: Q01DX005 (ip), vehicle: saline with Tween-80
[9] = dose: 200.0 mg/kg/injection, schedule: Q01DX005 (ip), vehicle: saline with Tween-80
[10] = dose: 100.0 mg/kg/injection, schedule: Q01DX009 (ip), vehicle: saline
[11] = dose: 50.0 mg/kg/injection, schedule: Q01DX009 (ip), vehicle: saline with Tween-80
[12] = dose: 100.0 mg/kg/injection, schedule: Q01DX009 (ip), vehicle: saline with Tween-80
[13] = dose: 200.0 mg/kg/injection, schedule: Q01DX009 (ip), vehicle: saline with Tween-80
[14] = dose: 6.25 mg/kg/injection, schedule: Q01DX009 (ip), vehicle: Klucel (hydroxypropylcellulose) (HPC)
[15] = dose: 12.5 mg/kg/injection, schedule: Q01DX009 (ip), vehicle: Klucel (hydroxypropylcellulose) (HPC)
[16] = dose: 25.0 mg/kg/injection, schedule: Q01DX009 (ip), vehicle: Klucel (hydroxypropylcellulose) (HPC)
[17] = dose: 60.0 mg/kg/injection, schedule: Q01DX005 (ip), vehicle: saline with Tween-80
[18] = dose: 120.0 mg/kg/injection, schedule: Q01DX005 (ip), vehicle: saline with Tween-80
[19] = dose: 240.0 mg/kg/injection, schedule: Q01DX005 (ip), vehicle: saline with Tween-80
[20] = dose: 200.0 mg/kg/injection, schedule: Q01DX009 (ip), vehicle: saline
[21] = dose: 100.0 mg/kg/injection, schedule: Q04DX003 (ip), vehicle: saline with Tween-80

O=C1C(O)=C(Cl)C(=O)C(O)=C1Cl
T/C (dose: 12.5 mg/kg/injection, schedule: Q01DX005 (ip), vehicle: saline): 111 % of control
T/C (dose: 25.0 mg/kg/injection, schedule: Q01DX005 (ip), vehicle: saline): 101 % of control
T/C [1]: 110 % of control
T/C [2]: 90 % of control

ClC(Cl)c1nc2ccccc2[nH]1
T/C [3]: 108 % of control
T/C [4]: 100 % of control
T/C [5]: 108 % of control
T/C [6]: 101 % of control

COc1ccccc1OCC(O)CNc1ccc(Cl)cc1C(=O)c1ccccc1Cl (stereo unspecified)
T/C [7]: 90 % of control
T/C [8]: 90 % of control
T/C [9]: 88 % of control

Cc1cc[c]([Bi]([c]2ccc(C)cc2)[c]2ccc(C)cc2)cc1
T/C (dose: 60.0 mg/kg/injection, schedule: Q01DX005 (ip), vehicle: Klucel (hydroxypropylcellulose) (HPC)): 105 % of control
T/C (dose: 120.0 mg/kg/injection, schedule: Q01DX005 (ip), vehicle: Klucel (hydroxypropylcellulose) (HPC)): 96 % of control

CN1CCC(c2ccccc2)(c2ccccc2)OC1
T/C [5]: 100 % of control
T/C [6]: 100 % of control
T/C [10]: 113 % of control

COC(=O)/C=C/CCO
T/C [11]: 111 % of control
T/C [12]: 95 % of control
T/C [13]: 108 % of control

O=C1CN(c2ccc(Cl)cc2)C(=O)CN1/N=C/c1ccco1
T/C [7]: 103 % of control
T/C [8]: 107 % of control
T/C [9]: 100 % of control

N=C(N)SCCCC(=O)O
T/C [4]: 102 % of control
T/C [5]: 120 % of control
T/C [6]: 95 % of control

CCOC(=O)C1NC(=O)C(C(=O)OCC)NC1=O (stereo unspecified)
T/C [7]: 96 % of control
T/C [8]: 92 % of control
T/C [9]: 93 % of control

Nc1cc(Cl)nc(N)n1
T/C (dose: 25.0 mg/kg/injection, schedule: Q01DX009 (ip), vehicle: saline with Tween-80): 96 % of control
T/C [11]: 97 % of control
T/C [12]: 101 % of control
T/C [13]: 105 % of control
T/C (dose: 400.0 mg/kg/injection, schedule: Q01DX009 (ip), vehicle: saline with Tween-80): 100 % of control

CC(=O)Nc1c(C)ncn(-c2ccccc2)c1=O
T/C (dose: 60.0 mg/kg/injection, schedule: Q01DX005 (ip), vehicle: saline): 95 % of control
T/C (dose: 120.0 mg/kg/injection, schedule: Q01DX005 (ip), vehicle: saline): 100 % of control
T/C (dose: 240.0 mg/kg/injection, schedule: Q01DX005 (ip), vehicle: saline): 101 % of control

CN(C)c1ccc(N=C2C=CC(=[N+](C)C)C=C2)cc1
T/C (dose: 3.13 mg/kg/injection, schedule: Q01DX009 (ip), vehicle: Klucel (hydroxypropylcellulose) (HPC)): 90 % of control
T/C [14]: 93 % of control
T/C [15]: 101 % of control
T/C [16]: 114 % of control

CCN(CC)P(=O)(c1cccn1C)c1cccn1C
T/C [11]: 100 % of control
T/C [12]: 102 % of control
T/C [13]: 97 % of control

Nc1c(CNCc2nnn(Cc3ccccc3)c2N)nnn1Cc1ccccc1
T/C [11]: 96 % of control
T/C [12]: 93 % of control
T/C [13]: 93 % of control

Cc1cc(=O)[nH]c2cc3oc4ccccc4c3cc12
T/C [17]: 98 % of control
T/C [18]: 102 % of control
T/C [19]: 103 % of control

CNC(=O)n1c(N)nc(-c2ccccc2)c1-c1ccccc1
T/C (dose: 12.5 mg/kg/injection, schedule: Q04DX002 (ip), vehicle: saline with Tween-80): 115 % of control
T/C (dose: 25.0 mg/kg/injection, schedule: Q04DX002 (ip), vehicle: saline with Tween-80): 115 % of control
T/C (dose: 50.0 mg/kg/injection, schedule: Q04DX002 (ip), vehicle: saline with Tween-80): 117 % of control

N#CC12C3C4C5C3C1n1c(=O)n(-c3ccccc3)c(=O)n1C5C42 (stereo unspecified)
T/C (dose: 100.0 mg/kg/injection, schedule: Q04DX003 (ip), vehicle: Klucel (hydroxypropylcellulose) (HPC)): 106 % of control
T/C (dose: 200.0 mg/kg/injection, schedule: Q04DX003 (ip), vehicle: Klucel (hydroxypropylcellulose) (HPC)): 106 % of control
T/C (dose: 400.0 mg/kg/injection, schedule: Q04DX003 (ip), vehicle: Klucel (hydroxypropylcellulose) (HPC)): 107 % of control

CC(C)C(O)(C(=O)OCC1=CCN2CCC(O)C12)C(C)O (stereo unspecified)
T/C [1]: 103 % of control
T/C [2]: 109 % of control
T/C (dose: 200.0 mg/kg/injection, schedule: Q01DX005 (ip), vehicle: saline): 117 % of control

CCC1(C)CC(C#N)(C#N)C(=O)NC1=O (stereo unspecified)
T/C [17]: 100 % of control
T/C [18]: 97 % of control
T/C [19]: 100 % of control

CS(=O)(=O)N(C=O)c1ccccc1
T/C [6]: 110 % of control
T/C [10]: 100 % of control
T/C [20]: 96 % of control

c1ccc2c(CN3CCCCC3)c[nH]c2c1
T/C (dose: 50.0 mg/kg/injection, schedule: Q04DX003 (ip), vehicle: saline with Tween-80): 100 % of control
T/C [21]: 90 % of control

COC(=O)c1c(C(N)=O)c(C)n(NC(N)=O)c1C
T/C [7]: 117 % of control
T/C [8]: 107 % of control
T/C [9]: 108 % of control

CCC[CH2][Ge](=[O])[CH2]CCC
T/C [6]: 103 % of control
T/C [10]: 102 % of control
T/C [20]: 88 % of control

C[N+](C)(C)CCC(=O)c1ccc(O)cc1
T/C (dose: 3.13 mg/kg/injection, schedule: Q01DX009 (ip), vehicle: saline): 97 % of control
T/C [3]: 100 % of control
T/C [4]: 118 % of control

COC12[C@@H]3N[C@@H]3CN1C1=C(C(=O)C(NCCSSCCNC3=C(C)C(=O)C4=C(C3=O)C(COC(N)=O)[C@]3(OC)C5N[C@@H]5CN43)=C(C)C1=O)[C@@H]2COC(N)=O (stereo partly specified)
T/C (dose: 3.12 mg/kg/injection, schedule: Q01DX001 (ip), vehicle: DMSO): 157 % of control
T/C (dose: 6.25 mg/kg/injection, schedule: Q01DX001 (ip), vehicle: DMSO): 161 % of control
T/C (dose: 12.5 mg/kg/injection, schedule: Q01DX001 (ip), vehicle: DMSO): 177 % of control
T/C (dose: 25.0 mg/kg/injection, schedule: Q01DX001 (ip), vehicle: DMSO): 233 % of control

O=C1N=C2SCCCN2C1(c1ccccc1)c1ccccc1
T/C [17]: 97 % of control
T/C [18]: 92 % of control
T/C [19]: 100 % of control

Cc1ccc2nc(N/N=C/c3ccccn3)cc(C)c2c1
T/C [7]: 103 % of control and 107 % of control and 111 % of control
T/C [8]: 110 % of control and 114 % of control and 115 % of control
T/C [9]: 110 % of control

CC1c2c(cc(OC(=O)c3cccc(S(=O)(=O)F)c3)nc2OC(=O)c2cccc(S(=O)(=O)F)c2)C(=O)N1Cc1ccccc1 (stereo unspecified)
T/C [14]: 97 % of control
T/C [15]: 88 % of control
T/C [16]: 87 % of control

O=C(NC(Cc1c[nH]c2ccccc12)C(=O)O)C(=O)c1c[nH]c2ccccc12 (stereo unspecified)
T/C [17]: 100 % of control
T/C [18]: 97 % of control
T/C [19]: 90 % of control

CS(=O)(=O)OCCF
T/C (dose: 0.78 mg/kg/injection, schedule: Q01DX009 (ip), vehicle: saline with Tween-80): 97 % of control
T/C (dose: 1.56 mg/kg/injection, schedule: Q01DX009 (ip), vehicle: saline with Tween-80): 100 % of control
T/C (dose: 3.12 mg/kg/injection, schedule: Q01DX009 (ip), vehicle: saline with Tween-80): 103 % of control
T/C (dose: 3.96 mg/kg/injection, schedule: Q04DX003 (ip), vehicle: saline): 109 % of control
T/C (dose: 6.0 mg/kg/injection, schedule: Q04DX003 (ip), vehicle: saline): 104 % of control
T/C (dose: 6.25 mg/kg/injection, schedule: Q01DX009 (ip), vehicle: saline with Tween-80): 105 % of control and 111 % of control
T/C (dose: 9.0 mg/kg/injection, schedule: Q04DX003 (ip), vehicle: saline): 118 % of control
T/C (dose: 12.5 mg/kg/injection, schedule: Q01DX009 (ip), vehicle: saline with Tween-80): 89 % of control

CSc1nc(Cl)c(Br)c(Sc2nc(N)nc3nc[nH]c23)n1
T/C [11]: 122 % of control
T/C [12]: 109 % of control
T/C [21]: 118 % of control
T/C (dose: 200.0 mg/kg/injection, schedule: Q04DX003 (ip), vehicle: saline with Tween-80): 150 % of control

CC(Nc1ccccc1)C(=Nc1ccccc1)Nc1ccccc1 (stereo unspecified)
T/C (dose: 50.0 mg/kg/injection, schedule: Q01DX005 (ip), vehicle: Klucel (hydroxypropylcellulose) (HPC)): 110 % of control
T/C (dose: 100.0 mg/kg/injection, schedule: Q01DX005 (ip), vehicle: Klucel (hydroxypropylcellulose) (HPC)): 113 % of control
T/C (dose: 200.0 mg/kg/injection, schedule: Q01DX005 (ip), vehicle: Klucel (hydroxypropylcellulose) (HPC)): 113 % of control
